Assay [1] relates to Akt. The assay is described as follows: Western blot of Akt phosphorylation in rat primary cortical neurons (Shank3 knock down vs control). In kind it is cell-based. The settings on record: DIV 16. An excerpt:
E18 primary rat cortical neurons were dissected, cultured and infected 6 days after plating (DIV6) with indicated lentiviruses at MOI 10, as previously described (Proenca et al., 2013). Lentiviruses were produced by calcium phosphate transfection of HEK293T cells with packaging plasmids (Life Technologies) and transfer plasmid in 10 cm dishes. Cells were transferred to fresh medium 6 hrs. post-transfection. Four days post-transfection, the cell medium was collected and pooled from several dishes, cleared of cellular debris by 0.45 μm filtration, and concentrated 100× by centrifugation at 19,000 g for 90 min in a Beckman Ultracentrifuge using a SW28/SW32 rotor. Pellets were suspended in PBS/0.5% BSA and viral titer was determined by ELISA quantification of viral p24 antigen (Zeptometrix Corp, USA). For shRNA plasmid generation, oligonucleotides were annealed and ligated into lentiviral transfer plasmid pLKO.1-GFP vector at the AgeI/EcoRI sites. The target sequences of shRNAs that target rat and mouse Shank3 (5′-3′) are: […] […] (SEQ ID NO: 2), and […] (SEQ ID NO: 3). The latter was previously reported (Verpelli et al., 2011). A luciferase-targeting sequence was used as an shRNA control: […] (SEQ ID NO: 4).
For immunoprecipitation (IP) of HA-tagged Akt, neurons were lysed in IP buffer (20 mM Tris-HCl pH 7.4, 3 mM EDTA, 3 mM EGTA, 150 mM NaCl, 0.5% NP-40, and protease/phosphatase inhibitor cocktails (Roche)). Lysates were cleared by centrifugation at 13,000 rpm for 10 min and lysates normalized for protein abundance were immunoprecipitated with rabbit HA-tag antibody for 1 h at 4° C. Immuno-complexes were then captured by incubation for an additional 1 hr with Protein A agarose beads (Roche). Beads were washed three times with IP buffer and bound proteins were eluted with 2×SDS-PAGE sample buffer, then boiled for 5 min. For IP and analysis of ubiquitinated Myc-Clk2, neurons were lysed in Ubiquitin IP buffer (20 mM Tris-HCl pH 7.4, 3 mM EDTA, 3 mM EGTA, 150 mM NaCl, 1% Triton X-100, protease/phosphatase inhibitor cocktails (Roche), 5 mM N-ethylmaleimide, and 3 mM iodoacetamide) containing 1% SDS. Lysates were boiled for 20 min to denature proteins and then centrifuged for 10 min at 13,000 rpm. Lysates were subsequently diluted to 0.1% SDS with Ubiquitin IP buffer and immunoprecipitated with Myc antibody for 1 h. Complexes were then captured by addition of Protein G agarose (Roche) and additional 1 h incubation. Beads were washed 3× and eluted with 2×SDS-PAGE sample buffer, then boiled for 5 min. Samples prepared for SDS-PAGE were then resolved on 4-12% Novex gels (Life Technologies), transferred to PVDF membranes, blocked in 5% low-fat milk in TBS/0.1% Tween-20, and incubated overnight with primary antibodies. After washing and 1 h incubation with secondary antibodies, proteins were visualized by Chemiluminescent detection (Amersham-GE Healthcare Life Sciences).
To determine whether Shank3 deficiency impacts the PI3K-Akt-mTOR signaling pathway (FIG. 1A, gray highlight), lentiviral-mediated delivery of shRNAs was used to knock-down Shank3 in rat primary cortical neuron cultures. Cultured rat primary cortical neurons were transduced with lentiviruses encoding control shRNA or Shank3-shRNA at six days in vitro (DIV 6) and treated with BDNF (50 ng/ml) for 15 or 30 min at 14-16 days in vitro (DIV 14-16). Cell lysates were prepared in RIPA buffer prior to resolution by SDS-PAGE and Western blotting.
Cortical neurons, transduced with shRNA-expressing lentiviruses on DIV 6, were treated with 50 ng/ml BDNF or okadaic acid (100 nM) on DIV 16 and cell lysates were resolved by SDS-PAGE, followed by Western blotting.
(In general: In western blotting, separated proteins are transferred to a membrane and probed.)

Assay [2] concerns Shank3 knock-out mice. The settings on record: cited from earlier work.
For assay [3], the system named is CA1 pyramidal neurons. The assay is described as follows: Dendritic spine density in hippocampal organotypic slice cultures. Format: cell-based, mouse. The method, then: Wilde type (C57B1/6) mice were housed in a temperature-controlled room and maintained on a 12 hr light/dark cycle. Food and water were available ad libitum and experiments were carried out in accordance with the local authorization guidelines for the care and use of laboratory animals. Slice cultures were established according to the procedure described by Stoppini and colleagues (Galimberti et al., 2006; Stoppini et al., 1991). […] For organotypic slice cultures, brains of P6-P9 transgenic mice were dissected in cold MEM (GIBCO) medium, and hippocampal coronal sections of 400 μm were obtained with a tissue chopper (McIlwain). Slices were selected, placed on Millicell (Millipore, PICM03050) and cultured in 6-well dishes at 35° C. and 5% CO2 in the presence of 1 ml of medium. The entire slice isolation procedure took about 30 min. The culture medium was exchanged every third day. Treatments were performed in fresh culture medium for the indicated time periods.
Brain slices were transfected with plasmids encoding shCont, and shShank3 using helios gene gun system (Bio-Rad Laboratories, #165-2431) as previously described (Proenca et al., 2013). Subsequently, slices were fixed, stained, mounted, and analyzed following the protocols described below in the immunohistochemistry and microscopy paragraphs.
Slices were fixed for 10 minutes in 4% PFA, washed in PBS and blocked for 4 hr at room temperature in 0.3% Triton X-100 20% Horse Serum/PBS (blocking solution). GFP primary antibody was incubated for 24 hr at 4° C. in the blocking solution. Afterwards, slices were washed in PBS, incubated for 2 hr in 0.3% Triton X-100/PBS with Alexa Fluor® 488 Donkey anti-chicken secondary antibody (Life technologies). Finally, slices were washed in PBS, incubated 10 minutes with DAPI (Life technologies) and mounted on glass slides using ProLong mountant (Life technologies).
High resolution images were acquired on an upright Zeiss LSM700 confocal microscope, using a Plan-Neofluar 100×/1.3 oil immersion objective. For the analysis of dendritic spine density, confocal 3D stacks were acquired in CA1 region for each experiment. To quantify spine density, a stretch of approximately 30 μm was selected on secondary dendrites originating at the branch point from the primary dendrite. Only secondary dendrites were considered to reduce variability. Dendritic length was measured using the ImageJ plugin, Simple Neurite tracer, and spine density manually counted using the Cell Counter plugin.
The above findings implicate CLK2 overexpression as a specific anomaly that is causative for attenuated Akt activity in neurons deficient for Shank3. Consequently, inhibiting CLK2 activity or directly activating Akt would restore neuronal impairments associated with Shank3 loss of function. First, a small-molecule Akt-activator, SC79, was tested for its ability to restore Akt phosphorylation (FIG. 5A). SC79 binds directly to Akt to facilitate an ‘open’ conformation of the protein that is accessible to upstream activating kinases (eg. PDK1). This obviates the need for PtdIns(3,4,5)P3 (PIP3) production and recruitment of Akt to the plasma membrane (Rodgers, Cell Metab. 11, 23-34, 2010). […] Decreased principal neuron dendritic spine density has frequently been observed in Shank3 loss of function models (Durand et al., 2007, Nature Genetics 39: 25-27; Peca et al., 2011, Nature 472: 437-442; Verpelli et al., 2011, The Journal of Biological Chemistry 286: 34839-34850). Knock-down of Shank3 in hippocampal organotypic slice cultures, via biolistic transfection of shRNA vectors, faithfully recapitulated this phenotype in CA1 pyramidal neurons, whereby a two-fold reduction in apical dendrite spine density resulted (FIG. 6A). […]

In assay [4] the test system is PMDS neurons. The settings on record: cited from earlier work.
The test system of assay [5] is PMDS patients. The settings on record: pilot studies; cited from earlier work.
Assay [6] deals with CLK2. Nature of the assay: Western blot of CLK2 protein expression in primary neurons. Format: cell-based, rat. An excerpt:
E18 primary rat cortical neurons were dissected, cultured and infected 6 days after plating (DIV6) with indicated lentiviruses at MOI 10, as previously described (Proenca et al., 2013). Lentiviruses were produced by calcium phosphate transfection of HEK293T cells with packaging plasmids (Life Technologies) and transfer plasmid in 10 cm dishes. Cells were transferred to fresh medium 6 hrs. post-transfection. Four days post-transfection, the cell medium was collected and pooled from several dishes, cleared of cellular debris by 0.45 μm filtration, and concentrated 100× by centrifugation at 19,000 g for 90 min in a Beckman Ultracentrifuge using a SW28/SW32 rotor. Pellets were suspended in PBS/0.5% BSA and viral titer was determined by ELISA quantification of viral p24 antigen (Zeptometrix Corp, USA). For shRNA plasmid generation, oligonucleotides were annealed and ligated into lentiviral transfer plasmid pLKO.1-GFP vector at the AgeI/EcoRI sites. The target sequences of shRNAs that target rat and mouse Shank3 (5′-3′) are: […] (SEQ ID NO: 1), […] (SEQ ID NO: 2), and […] (SEQ ID NO: 3). The latter was previously reported (Verpelli et al., 2011). A luciferase-targeting sequence was used as an shRNA control: […] (SEQ ID NO: 4).
For immunoprecipitation (IP) of HA-tagged Akt, neurons were lysed in IP buffer (20 mM Tris-HCl pH 7.4, 3 mM EDTA, 3 mM EGTA, 150 mM NaCl, 0.5% NP-40, and protease/phosphatase inhibitor cocktails (Roche)). Lysates were cleared by centrifugation at 13,000 rpm for 10 min and lysates normalized for protein abundance were immunoprecipitated with rabbit HA-tag antibody for 1 h at 4° C. Immuno-complexes were then captured by incubation for an additional 1 hr with Protein A agarose beads (Roche). Beads were washed three times with IP buffer and bound proteins were eluted with 2×SDS-PAGE sample buffer, then boiled for 5 min. […]

Where a SMILES comes first, the peptide text is derived from it. The star is where a group is joined. Cbz = O=C(OCc1ccccc1)*

With “wild type B56β: Flag-tagged wild type B56β regulatory subunit of PP2A, expressed by lentiviral transduction”, the Akt phosphorylation entry in assay [1] (Shank3 knock down neurons, lentiviral co-expression of Flag-tagged B56β, 50 ng/ml BDNF) is “had no effect”.
Take `C=C1[C@@H](O)[C@@H]2O[C@]3(CC[C@H](/C=C/[C@@H](C)[C@@H]4CC(C)=C[C@@]5(O[C@H](C[C@@](C)(O)C(=O)O)CC[C@H]5O)O4)O3)CC[C@H]2O[C@@H]1[C@@H](O)C[C@H](C)[C@H]1O[C@@]2(CCCCO2)CC[C@H]1C` [okadaic acid]: in assay [1] (okadaic acid 100 nM), the “increase of Akt T308 phosphorylation in Shank3 knock down neurons versus increase in control neurons” value is given as “two-fold greater”. In addition, in assay [1] (okadaic acid 100 nM, alone or with 50 ng/ml BDNF, control and Shank3 knock down neurons), the “Akt T308 phosphorylation” value was “enhanced Akt T308 phosphorylation in both control and Shank3 knock down neurons”.
On to IGF-1: insulin-like growth factor-1, for which, in assay [2], the “synaptic and motor deficits” value is “alleviated synaptic and motor deficits in Shank3 knock-out mice”. In addition, in assay [3] (Shank3 knockdown neurons, 1 μg/ml IGF-1 24 h, with or without 10 μM Akti, fixed DIV 14), the dendritic spine density entry was “restored normal dendritic spine density to Shank3 knockdown neurons, in an Akt-dependent manner”. The synaptic impairment result in assay [4] is given as “alleviated”. Also, in assay [5], the “motor, cognitive and social impairments” value is “beneficial”.
insulin: insulin: the “motor, cognitive and social impairments” value in assay [5] is listed as “beneficial”.
As to `CC(C)C[C@@H](C=O)NC(=O)[C@H](CC(C)C)NC(=O)[C@H](CC(C)C)NC(=O)OCc1ccccc1` [MG132] (Cbz-Leu-Leu-Leu-aldehyde), in assay [6] (control cells, 2.5 or 20 μM MG132, 30 minutes), the CLK2 protein level result is given as “rapid increase of CLK2 in control cells”.
On to `O=c1[nH]c2ccccc2n1C1CCN(Cc2ccc(-c3nc4cc5[nH]cnc5cc4nc3-c3ccccc3)cc2)CC1` [Akti], for which the “effect of TG003 on spine density with Akt inhibitor” value in assay [3] (Shank3 knock down neurons, 10 μM Akti included in TG003 treatment) was “blocked”. Moreover, the dendritic spine density entry in assay [3] (Thy1-mGFP transfected slice cultures, 10 μM Akti 24 h, fixed DIV14) is on record as “sufficient to reduce dendritic spine density”.

B1: BDNF: brain derived neurotrophic factor (protein, UniProt P23560 19-247, looked up)
Neurotrophic factor BDNF …: APMKEANIRGQGGLAYPGVRTHGTLESVNGPKAGSRGLTSLADTFEHVIEELLDEDQKVRPNEENNKDADLYTSRVMLSSQVPLEPPLLFLLEEYKNYLDAANMSMRVRRHSDPARRGELSVCDSISEWVTAADKKTAVDMSGGTVTVLEKVPVSKGQLKQYFYETKCNPMGYTKEGCRGIDKRHWNSQCRTTQSYVRALTMDSKKRIGWRFIRIDTSCVCTLTIKRGR
In the case of B1, the CLK2 protein level entry was “elicited no significant further increase of CLK2 levels” in assay [6] (Shank3 knock down neurons, BDNF treatment) and “induced the accumulation of CLK2 in control neurons” in assay [6] (control neurons, BDNF 30 minutes).

The values above are taken from patent US20180296537A1, “METHODS AND COMPOSITIONS FOR DIAGNOSING, TREATING, AND MONITORING TREATMENT OF SHANK3 DEFICIENCY ASSOCIATED DISORDERS” (Novartis AG, priority 2015, published 2018).
